According to US20260374782A1, “NEW COMPOUNDS, PROCESSES FOR PREPARING THE SAME AND THEIR USE AS DRUGS” (B&A ONCOMEDICAL, priority 2022, published 2026):

System: CA1 pyramidal neurons
Test: Seizure-like events (SLE) triggered by tetanus stimulation of stratum radiatum in hippocampus, cell-attached recording
Assay type: cell-based
Conditions: for anticonvulsive activity / suppression of GABAAR-mediated depolarization during SLEs: 2 μM, in words
Description: (§1) FIG. 4. Cell-attached recording Tetanus in CA1 pyramidal neurons in presence of compound 51 (20 stimulus, 100 Hz, 4 consecutive traces superimposed), expressed in picoampere per second. The upper bars are representing the 100 Hz stimulation of stratum radiatum in control conditions, and the lower bars are representing 30 minutes after application of 2 μM of compound 51.
as §1, with “5.” for “4.”, “57” for “51”, “57.” for “51.”
FIG. 6. Post-tetanus frequency (normalized) in presence or not of 2 μM of compound 51 (withing 20 seconds window s after tetanus stimulation) (paired two-tailed t test: p=1*e^−4, n=5 cells). The error bars represent standard error of the mean.
FIG. 7. Post-tetanus frequency (normalized) in presence or not of 2 μM of compound 57 (withing 20 seconds window s after tetanus stimulation) (paired two-tailed t test: p=1*e^−4, n=5 cells). The error bars represent standard error of the mean.
Use of a NKCC1 inhibitor to block the activation of NKCC1 can reduce the [Cl^−]i, and thereby attenuate the excitatory GABAAR responses during epilepsy. Therefore, anticonvulsant effects of 51 on modulating the GABA polarity in acute seizure models was investigated. The seizure-like events in CA1 pyramidal neurons were triggered by tetanic stimulation of stratum radiatum in hippocampus by 51 (FIG. 4) and 57 (FIG. 5).

Structure (SMILES)	anticonvulsive activity	suppression of GABAAR-mediated depolarization during SLEs	activity at 2 µM (Pyramidal neuron, 0.5 h, fraction of control, n=5, two-tailed paired t-test, p=5*e^−4, read-out: post-tetanus spike frequency, of control) [%]
CCCCNc1cc(C(=O)O)cc(S(=N)(=O)NC)c1Oc1ccccc1 (centres unmarked) [Compound 51, 3-(butylamino)-5-(methylaminosulfonimidoyl)-4-phenoxy-benzoic acid]	potent anticonvulsive activity	potently suppressed	27 ± 7
CCCCNc1cc(C(=O)O)cc(S(=N)(=O)Nc2ccccc2)c1Oc1ccccc1 (centres unmarked) [Compound 57, 3-(anilinosulfonimidoyl)-5-(butylamino)-4-phenoxy-benzoic acid]	potent anticonvulsive activity	potently suppressed	
